# Laboratory results: patent US10183943B2, “Heterocyclic compounds and their use in preventing or treating bacterial infections” (MUTABILIS, priority 2015, dated 2019)
# pIC50: −log10 of the molar value. Read-outs that look alike come from different tables or passages of the source.
# Legend:
# KPC-2 = molecular target: T1, KPC-2 (Klebsiella pneumoniae, UniProt Q9F663); test: β-lactamase inhibitory activity, determination of IC50 (nitrocefin hydrolysis); format: biochemical
# T1 construct: made in house; host or cells: E. coli
# T1 sequence (Q9F663 25-293 limits assumed): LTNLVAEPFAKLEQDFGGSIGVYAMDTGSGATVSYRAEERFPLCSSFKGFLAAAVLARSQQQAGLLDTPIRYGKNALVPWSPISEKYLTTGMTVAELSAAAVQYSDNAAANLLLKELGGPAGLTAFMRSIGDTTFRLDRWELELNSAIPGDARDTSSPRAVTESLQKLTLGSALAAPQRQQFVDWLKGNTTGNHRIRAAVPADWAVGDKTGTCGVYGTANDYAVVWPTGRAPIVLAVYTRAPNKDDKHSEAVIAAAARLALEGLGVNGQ
# [1] = tested on: E. cloacae UFR70 (TEM-1, CTX-M-15, CMY-2, OXA-1, Porin loss); test: MIC of compounds alone, broth microdilution; format: cell-based; conditions: Enterobacter cloacae, read-out: MIC compounds of the invention alone
# Procedure, shortened: (§1)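 Cpd alone in DMSO; CAMHB, log-phase inoculum 5×10^5 cfu/mL; 35° C, 16-20 h, ambient air; MIC = lowest conc. with no visible growth (CLSI M7-A7).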
# [2] = tested on: K. pneumoniae BAA-1898 (TEM-1, SHV-11, SHV-12, KPC-2); test: MIC of compounds alone, broth microdilution; format: cell-based; conditions: Klebsiella pneumoniae
# Procedure, shortened: as §1
# [3] = tested on: E. cloacae 260508 (TEM-1, CTX-M-15); test: MIC of compounds alone, broth microdilution; format: cell-based; conditions: Enterobacter cloacae, read-out: MIC compounds of the invention alone
# Procedure, shortened: as §1
# [4] = tested on: E. cloacae UFR85 (TEM-1, CTX-M-15, AmpC); test: MIC of compounds alone, broth microdilution; format: cell-based; conditions: Enterobacter cloacae, read-out: MIC compounds of the invention alone
# Procedure, shortened: as §1
# [5] = tested on: E. coli 190317 (TEM-1, SHV-12, CTX-M-15, OXA-1); test: MIC of compounds alone, broth microdilution; format: cell-based; conditions: Escherichia coli, read-out: MIC compounds of the invention alone
# Procedure, shortened: as §1
# [6] = tested on: E. coli 131119 (TEM-1, OXA-48); test: MIC of compounds alone, broth microdilution; format: cell-based; conditions: Escherichia coli, read-out: MIC compounds of the invention alone
# Procedure, shortened: as §1
# [7] = tested on: E. cloacae UFR51 (SHV-12, IMP-8); test: MIC of compounds alone, broth microdilution; format: cell-based; conditions: Enterobacter cloacae, read-out: MIC compounds of the invention alone
# Procedure, shortened: as §1
# E. cloacae P99 (AmpC) = test: MIC of compounds alone, broth microdilution; format: cell-based; conditions: Enterobacter cloacae, read-out: MIC compounds of the invention alone
# Procedure, shortened: as §1
# [8] = tested on: K. pneumoniae 6299 (TEM-1, SHV-11, OXA-163); test: MIC of compounds alone, broth microdilution; format: cell-based; conditions: Klebsiella pneumoniae, read-out: MIC compounds of the invention alone
# Procedure, shortened: as §1
# [9] = tested on: K. pneumoniae UFR77 (CMY-2); test: MIC of compounds alone, broth microdilution; format: cell-based; conditions: Klebsiella pneumoniae, read-out: MIC compounds of the invention alone
# Procedure, shortened: as §1
# [10] = tested on: E. coli UFR18 (CTX-M-15, OXA-204); test: MIC of compounds alone, broth microdilution; format: cell-based; conditions: Escherichia coli, read-out: MIC compounds of the invention alone
# Procedure, shortened: as §1
# [11] = tested on: K. pneumoniae 200047 (TEM-1, SHV-32, CTX-M-15, OXA-1); test: MIC of compounds alone, broth microdilution; format: cell-based; conditions: Klebsiella pneumoniae, read-out: MIC compounds of the invention alone
# Procedure, shortened: as §1
# [12] = tested on: K. pneumoniae UFR24 (TEM-1, SHV-2, SHV-11, OXA-1, OXA-48, OXA-47); test: MIC of compounds alone, broth microdilution; format: cell-based; conditions: Klebsiella pneumoniae, read-out: MIC compounds of the invention alone
# Procedure, shortened: as §1
# [13] = tested on: K. oxytoca UFR21 (TEM-1, CTX-M-15, OXA-48); test: MIC of compounds alone, broth microdilution; format: cell-based; conditions: Klebsiella oxytoca, read-out: MIC compounds of the invention alone
# Procedure, shortened: as §1
# [14] = tested on: E. coli UFR32 (TEM-1, VEB-1, OXA-10); test: MIC of compounds alone, broth microdilution; format: cell-based; conditions: Escherichia coli, read-out: MIC compounds of the invention alone
# Procedure, shortened: as §1
# [15] = tested on: E. coli UFR61O (TEM-1, KPC-2); test: MIC of compounds alone, broth microdilution; format: cell-based; conditions: Escherichia coli, read-out: MIC compounds of the invention alone
# Procedure, shortened: as §1
# [16] = tested on: E. coli UFR74 (SHV-1, DHA-1); test: MIC of compounds alone, broth microdilution; format: cell-based; conditions: Escherichia coli, read-out: MIC compounds of the invention alone
# Procedure, shortened: as §1
# E. coli RGN238 (OXA-1) = test: MIC of compounds alone, broth microdilution; format: cell-based; conditions: Escherichia coli, read-out: MIC compounds of the invention alone
# Procedure, shortened: as §1
# [17] = tested on: E. coli UFR41 (TEM-1, CTX-M-15, CMY-2, OXA-1, NDM-4); test: MIC of compounds alone, broth microdilution; format: cell-based; conditions: Escherichia coli, read-out: MIC compounds of the invention alone
# Procedure, shortened: as §1
# [18] = tested on: K. pneumoniae 160143 (TEM-1, SHV-1, CTX-M-15, KPC-2, OXA-1); test: MIC of compounds alone, broth microdilution; format: cell-based; conditions: Klebsiella pneumoniae, read-out: MIC compounds of the invention alone
# Procedure, shortened: as §1
# [19] = tested on: K. pneumoniae UFR39 (CTX-M-15, NDM-1); test: MIC of compounds alone, broth microdilution; format: cell-based; conditions: Klebsiella pneumoniae, read-out: MIC compounds of the invention alone
# Procedure, shortened: as §1
# [20] = tested on: P. aeruginosa CIP107051 (TEM-24); test: MIC of compounds alone, broth microdilution; format: cell-based; conditions: Pseudomonas aeruginosa
# Procedure, shortened: as §1
# [21] = tested on: K. pneumoniae UFR68 (TEM-1, SHV-11, CTX-M-15, KPC-3); test: MIC of compounds alone, broth microdilution; format: cell-based; conditions: Klebsiella pneumoniae, read-out: MIC compounds of the invention alone
# Procedure, shortened: as §1
# OXA-1 = molecular target: T2, OXA-1 (Escherichia coli, UniProt P13661); test: β-lactamase inhibitory activity, determination of IC50 (nitrocefin hydrolysis); format: biochemical
# T2 construct: made in house; host or cells: E. coli
# T2 sequence (P13661 26-276): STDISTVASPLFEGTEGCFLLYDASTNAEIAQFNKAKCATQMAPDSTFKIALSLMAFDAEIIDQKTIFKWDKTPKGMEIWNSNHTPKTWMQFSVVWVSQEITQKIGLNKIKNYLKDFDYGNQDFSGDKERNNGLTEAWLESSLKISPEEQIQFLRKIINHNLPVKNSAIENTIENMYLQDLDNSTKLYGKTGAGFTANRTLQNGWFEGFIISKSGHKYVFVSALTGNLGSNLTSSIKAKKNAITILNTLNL
# SHV-1 = molecular target: T3, SHV-1 (Klebsiella pneumoniae, UniProt P0AD64); test: as above; format: biochemical
# T3 construct: made in house; host or cells: E. coli
# T3 sequence (P0AD64 22-286): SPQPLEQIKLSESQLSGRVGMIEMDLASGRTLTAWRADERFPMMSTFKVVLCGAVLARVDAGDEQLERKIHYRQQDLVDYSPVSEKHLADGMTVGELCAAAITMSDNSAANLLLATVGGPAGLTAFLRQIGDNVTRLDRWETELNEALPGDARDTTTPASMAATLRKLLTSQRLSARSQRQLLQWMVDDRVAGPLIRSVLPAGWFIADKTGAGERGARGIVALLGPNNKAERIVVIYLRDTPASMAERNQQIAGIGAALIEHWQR
# AmpC (P99) = AmpC (P99) (Enterobacter cloacae, UniProt P05364); test: as above
# AmpC (P99), sequence (P05364 21-381): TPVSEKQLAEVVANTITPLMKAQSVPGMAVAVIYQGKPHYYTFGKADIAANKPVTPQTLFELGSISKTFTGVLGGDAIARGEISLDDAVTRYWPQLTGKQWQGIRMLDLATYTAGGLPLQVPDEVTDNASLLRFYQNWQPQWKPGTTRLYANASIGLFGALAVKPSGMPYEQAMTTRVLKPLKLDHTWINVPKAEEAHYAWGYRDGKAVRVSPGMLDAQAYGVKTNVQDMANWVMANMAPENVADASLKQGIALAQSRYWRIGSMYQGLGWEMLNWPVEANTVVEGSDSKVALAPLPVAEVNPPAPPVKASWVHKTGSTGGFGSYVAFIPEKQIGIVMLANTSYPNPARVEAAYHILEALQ
# OXA-11 = molecular target: T4, OXA-11 (Pseudomonas aeruginosa, UniProt Q06778); test: as above; format: biochemical
# T4 construct: made in house; host or cells: E. coli
# T4 sequence (Q06778 21-266): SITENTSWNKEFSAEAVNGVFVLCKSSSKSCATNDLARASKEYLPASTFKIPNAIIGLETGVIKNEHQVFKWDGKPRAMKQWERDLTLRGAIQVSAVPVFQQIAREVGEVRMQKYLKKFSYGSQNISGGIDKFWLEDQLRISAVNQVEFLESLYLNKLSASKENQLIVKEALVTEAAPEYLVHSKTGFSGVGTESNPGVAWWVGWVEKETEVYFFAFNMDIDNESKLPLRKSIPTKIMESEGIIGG
# TEM-1 = molecular target: T5, TEM-1 (Escherichia coli, UniProt P62593); test: as above; format: biochemical
# T5 construct: made in house; host or cells: E. coli
# T5 sequence (P62593 24-286 limits assumed): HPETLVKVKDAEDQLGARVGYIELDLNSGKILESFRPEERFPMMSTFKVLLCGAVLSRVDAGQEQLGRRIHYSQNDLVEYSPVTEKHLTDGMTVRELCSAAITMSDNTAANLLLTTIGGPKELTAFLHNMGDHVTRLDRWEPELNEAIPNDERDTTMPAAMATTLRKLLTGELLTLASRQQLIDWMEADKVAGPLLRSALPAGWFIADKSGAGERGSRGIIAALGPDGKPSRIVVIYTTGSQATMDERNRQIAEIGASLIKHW
# CTX-M-15 = molecular target: T6, CTX-M-15 (Escherichia coli, UniProt Q9EXV5); test: as above; format: biochemical
# T6 construct: made in house; host or cells: E. coli
# T6 sequence (Q9EXV5 entry or part of it): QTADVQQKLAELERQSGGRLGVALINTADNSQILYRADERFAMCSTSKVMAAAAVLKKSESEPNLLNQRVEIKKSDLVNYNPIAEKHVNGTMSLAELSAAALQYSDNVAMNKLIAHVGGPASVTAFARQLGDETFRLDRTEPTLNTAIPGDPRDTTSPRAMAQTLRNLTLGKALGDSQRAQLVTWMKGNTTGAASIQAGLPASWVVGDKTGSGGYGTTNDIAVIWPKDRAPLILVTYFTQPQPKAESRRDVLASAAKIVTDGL
# AmpC P. aeruginosa = AmpC P. aeruginosa (Pseudomonas aeruginosa, UniProt P24735); test: as above
# AmpC P. aeruginosa, sequence (P24735 27-397): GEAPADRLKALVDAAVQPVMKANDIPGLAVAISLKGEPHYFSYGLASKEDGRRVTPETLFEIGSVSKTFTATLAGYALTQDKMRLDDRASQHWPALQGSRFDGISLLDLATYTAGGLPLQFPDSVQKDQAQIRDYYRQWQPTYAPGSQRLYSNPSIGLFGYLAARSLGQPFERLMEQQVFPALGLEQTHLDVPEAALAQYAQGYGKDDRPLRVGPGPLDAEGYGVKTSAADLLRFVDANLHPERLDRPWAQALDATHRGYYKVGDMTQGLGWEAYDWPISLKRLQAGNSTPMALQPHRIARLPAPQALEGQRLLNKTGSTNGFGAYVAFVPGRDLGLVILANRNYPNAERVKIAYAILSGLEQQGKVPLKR
# OXA-15 = molecular target: T7, OXA-15 (Pseudomonas aeruginosa, UniProt Q51574); test: biochemical
# T7 construct: made in house; host or cells: E. coli
# T7 sequence (Q51574 22-275): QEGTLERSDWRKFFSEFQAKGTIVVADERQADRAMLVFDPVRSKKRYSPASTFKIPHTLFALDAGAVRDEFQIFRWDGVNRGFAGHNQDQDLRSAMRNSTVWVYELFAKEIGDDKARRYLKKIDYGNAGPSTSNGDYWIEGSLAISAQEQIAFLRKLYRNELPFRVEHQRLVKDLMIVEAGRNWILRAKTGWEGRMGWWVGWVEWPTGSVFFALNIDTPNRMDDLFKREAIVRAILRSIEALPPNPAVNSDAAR
# OXA-48 = molecular target: T8, OXA-48 (Klebsiella pneumoniae, UniProt Q6XEC0); test: β-lactamase inhibitory activity, determination of IC50 (nitrocefin hydrolysis); format: biochemical
# T8 construct: made in house; host or cells: E. coli
# T8 sequence (Q6XEC0 23-265 limits assumed): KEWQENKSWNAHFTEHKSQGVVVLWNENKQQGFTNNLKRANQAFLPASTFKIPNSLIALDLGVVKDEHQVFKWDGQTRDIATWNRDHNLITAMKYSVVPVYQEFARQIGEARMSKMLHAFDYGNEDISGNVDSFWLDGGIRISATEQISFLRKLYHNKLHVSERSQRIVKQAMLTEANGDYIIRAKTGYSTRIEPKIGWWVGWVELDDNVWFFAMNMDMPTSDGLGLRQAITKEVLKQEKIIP
structure (smiles),measurement,setting,value
O=C1N2CC(c3ncco3)=C[C@H](C2)N1OC(F)(F)C(=O)O (racemic) [Example 37],pIC50,KPC-2,7.28
same,MIC,[1],2 µg/mL
same,MIC,"[2]; BAA1898, read-out: MIC compounds of the invention alone",4 µg/mL
same,MIC,[3],4 µg/mL
same,MIC,[4],2 µg/mL
same,MIC,[5],2 µg/mL
same,MIC,[6],2 µg/mL
same,MIC,[7],4 µg/mL
same,MIC,E. cloacae P99 (AmpC),8 µg/mL
same,MIC,[8],8 µg/mL
same,MIC,[9],4 µg/mL
same,MIC,[10],2 µg/mL
same,MIC,[11],2 µg/mL
same,MIC,[12],4 µg/mL
same,MIC,[13],4 µg/mL
same,MIC,[14],2 µg/mL
same,MIC,[15],8 µg/mL
same,MIC,[16],4 µg/mL
same,MIC,E. coli RGN238 (OXA-1),2 µg/mL
same,MIC,[17],16 µg/mL
same,MIC,[18],4 µg/mL
same,MIC,[19],8 µg/mL
same,MIC,"[20]; CIP107051, read-out: MIC compounds of the invention alone",> 128 µg/mL
same,MIC,[21],4 µg/mL
same,pIC50,OXA-1,5.13
same,pIC50,SHV-1,7.89
same,pIC50,AmpC (P99),6.20
same,pIC50,OXA-11,6.68
same,pIC50,TEM-1,8.80
same,pIC50,CTX-M-15,9.24
same,pIC50,AmpC P. aeruginosa,6.62
same,pIC50,OXA-15,7.23
same,pIC50,OXA-48,8.74
"O=C1N2CC=C(c3cnoc3)C(C2)N1OS(=O)(=O)[O-].[Na+] (centres unmarked) [Example 5, Sodium (7-oxo-4-isoxazol-4-yl-1,6-diaza-bicyclo[3.2.1]oct-3-en-6-yl) sulfate]",pIC50,"KPC-2; class (A), nitrocefin 200 μM, 30 min pre-incubation, read-out: IC50 β-lactamase KPC-2",6.57
same,MIC,[1],16 µg/mL
same,MIC,"[2]; BAA1898, strain BAA-1898 (K. pneumoniae), read-out: MIC compounds of the invention alone",> 32 µg/mL
same,MIC,[3],16 µg/mL
same,MIC,[4],> 32 µg/mL
same,MIC,[6]; strain 131119 (E. coli),16 µg/mL
same,MIC,[7]; strain UFR51 (E. cloacae),2 µg/mL
same,MIC,E. cloacae P99 (AmpC); strain P99 (E. cloacae),8 µg/mL
same,MIC,[8]; strain 6299 (K. pneumoniae),> 32 µg/mL
same,MIC,[9]; strain UFR77 (K. pneumoniae),> 32 µg/mL
same,MIC,[10]; strain UFR18 (E. coli),1 µg/mL
same,MIC,[11],> 32 µg/mL
same,MIC,[12]; strain UFR24 (K. pneumoniae),> 32 µg/mL
same,MIC,[13],> 32 µg/mL
same,MIC,[14]; strain UFR32 (E. coli),1 µg/mL
same,MIC,[15]; strain UFR61O (E. coli),8 µg/mL
same,MIC,[16]; strain UFR74 (E. coli),> 32 µg/mL
same,MIC,E. coli RGN238 (OXA-1); strain RGN238 (E. coli),> 32 µg/mL
same,MIC,[17],> 32 µg/mL
same,MIC,[18],> 32 µg/mL
same,MIC,[19]; strain UFR39 (K. pneumoniae),2 µg/mL
same,MIC,"[20]; strain CIP107051 (P. aeruginosa), read-out: MIC compounds of the invention alone",> 32 µg/mL
same,MIC,[21],> 32 µg/mL
same,pIC50,"OXA-1; class (D), nitrocefin 200 μM, 30 min pre-incubation, read-out: IC50 β-lactamase OXA-1",6.35
same,pIC50,SHV-1,7.60
same,pIC50,AmpC (P99),6.17
same,pIC50,OXA-11,5.66
same,pIC50,TEM-1,7.96
same,pIC50,"CTX-M-15; class (A), nitrocefin 200 μM, 30 min pre-incubation, read-out: IC50 β-lactamase CTX-M-15",8.16
same,pIC50,AmpC P. aeruginosa,5.82
same,pIC50,OXA-15,7.03
same,pIC50,"OXA-48; class (D), nitrocefin 200 μM, 30 min pre-incubation, read-out: IC50 β-lactamase OXA-48",8.24
